Several values for one entry are separate records, joined by “and”; a condition that tells them apart may be missing. Equal entries are not always repeated.
How the values were obtained:
[1] = xn = mol fraction of the nth substance listed

CCCCOCCO
Conditions	viscosity
293.15 K, 101.3 kPa	3.248 mPa·s
293.15 K, 101.33 kPa	3.26 mPa·s
295.15 K, 101 kPa	3.015 mPa·s
297.15 K, 101 kPa	2.857 mPa·s
298 K, 101.3 kPa	2.786 mPa·s
298.15 K, 100 kPa	2.855 mPa·s
298.15 K, 101.3 kPa	2.834 mPa·s
298.15 K, 101.33 kPa	2.844 mPa·s
298.45 K, 101 kPa	2.825 mPa·s
299.15 K, 101 kPa	2.709 mPa·s
301.15 K, 101 kPa	2.576 mPa·s
303 K, 101.3 kPa	2.403 mPa·s
303.15 K, 101.33 kPa	2.408 mPa·s
305.15 K, 101 kPa	2.327 mPa·s
307.15 K, 101 kPa	2.217 mPa·s
308 K, 101.3 kPa	2.115 mPa·s
308.15 K, 100 kPa	2.274 mPa·s
308.15 K, 101.3 kPa	2.228 mPa·s and 2.204 mPa·s
308.15 K, 101.33 kPa	2.193 mPa·s
309.15 K, 101 kPa	2.118 mPa·s
311.15 K, 101 kPa	2.017 mPa·s
313 K, 101.3 kPa	1.867 mPa·s
313.15 K, 101.3 kPa	1.964 mPa·s
313.15 K, 101.33 kPa	1.97 mPa·s and 1.869 mPa·s
315.15 K, 101 kPa	1.844 mPa·s
317.15 K, 101 kPa	1.764 mPa·s
318 K, 101.3 kPa	1.657 mPa·s
318.15 K, 101 kPa	1.937 mPa·s and 1.938 mPa·s and 1.928 mPa·s
318.15 K, 101.3 kPa	1.759 mPa·s
318.15 K, 101.33 kPa	1.764 mPa·s
319.15 K, 101 kPa	1.688 mPa·s
321.15 K, 101 kPa	1.618 mPa·s
323.15 K, 101 kPa	1.552 mPa·s
323.15 K, 101.3 kPa	1.584 mPa·s
323.15 K, 101.33 kPa	1.588 mPa·s

CCCCCCCCCCCC[P+](CCCC)(CCCC)CCCC.N#Cc1ccc[n-]1
100 kPa
Conditions	viscosity [mPa·s]
293.15 K	567
298.15 K	389
303.15 K	297
313.15 K	166

C[N+]1(CC2CO2)CCCC1=O.[Cl-] (stereo not given)
101 kPa
Conditions	viscosity
293.15 K	1.677 mPa·s and 1.623 mPa·s
298.15 K	1.537 mPa·s and 1.489 mPa·s
303.15 K	1.415 mPa·s and 1.373 mPa·s
308.15 K	1.309 mPa·s and 1.27 mPa·s
313.15 K	1.215 mPa·s and 1.18 mPa·s

CCCCCCCCN(CCCCCCCC)CCCCCCCC
Conditions	viscosity
298.15 K, 101.33 kPa	8.325 mPa·s and 8.325 mPa·s
303.15 K, 101 kPa	6.95 mPa·s

CCCCCCBr
101 kPa
Conditions	viscosity [mPa·s]
298.15 K	0.9475
303.45 K	0.885
313.35 K	0.782

CCCCCCCC(=O)OCC(COC(=O)CCCCCCC)OC(=O)CCCCCCC
101.33 kPa
Conditions	viscosity [mPa·s]
298 K	19.98
303 K	16.58
308 K	13.79
313 K	11.57

CC(=O)[O-].CCCC[N+](CC)(CC)CC
101 kPa
Conditions	viscosity [mPa·s]
298.2 K	439
313.2 K	306.7

CC(C)OCCO
101.33 kPa
Conditions	viscosity [mPa·s]
298.15 K	2.106
308.15 K	1.649
318.15 K	1.315

CCOCCOCCOCC
viscosity [mPa·s]
Conditions	298.15 K	308.15 K	318.15 K
101 kPa	1.268	–	–
101.33 kPa	1.268	1.048	0.881

CCOS(=O)(=O)[O-].CC[N+](CC)=C(N(C)C)N(C)C
100 kPa
Conditions	viscosity
293.15 K	190.9 mPa·s and 190.9 mPa·s
298.15 K	139 mPa·s and 139 mPa·s
303.15 K	104.9 mPa·s and 104.9 mPa·s
308.15 K	80.44 mPa·s and 80.44 mPa·s
313.15 K	63.24 mPa·s and 63.24 mPa·s
318.15 K	50.27 mPa·s and 50.27 mPa·s
323.15 K	40.55 mPa·s and 40.55 mPa·s

CNC=O + CC(=O)c1ccccc1
viscosity [mPa·s], [1], 101 kPa
Conditions	x1 = 0.0867	x1 = 0.176	x1 = 0.268	x1 = 0.3629	x1 = 0.4607	x1 = 0.5617	x1 = 0.6659	x1 = 0.7736	x1 = 0.8849
303.15 K	1.522	1.532	1.541	1.549	1.556	1.564	1.571	1.578	1.583
308.15 K	1.423	1.43	1.436	1.442	1.447	1.452	1.456	1.46	1.462
313.15 K	1.279	1.289	1.299	1.307	1.316	1.325	1.333	1.34	1.347
318.15 K	1.133	1.148	1.162	1.176	1.19	1.204	1.218	1.231	1.243

CCCCOCCO + C1CCCCC1
viscosity [mPa·s], [1], 101 kPa
Conditions	298.15 K	308.15 K
x1 = 0.0557	0.95	0.79
x1 = 0.1501	1.046	0.866
x1 = 0.2504	1.162	0.958
x1 = 0.3543	1.3	1.066
x1 = 0.4488	1.443	1.178
x1 = 0.5025	1.532	1.248
x1 = 0.5493	1.616	1.313
x1 = 0.6485	1.813	1.465
x1 = 0.7494	2.043	1.642
x1 = 0.8511	2.311	1.848
x1 = 0.9556	2.631	2.091

CCCCCCCCN(CCCCCCCC)CCCCCCCC + CCCCCC
Conditions	viscosity [mPa·s]
[1], 298 K, 101.3 kPa, x1 = 0.00584	0.331

[Cl-].[Cl-].[Mg+2] + O
viscosity, [1]
Conditions	293.15 K	298.15 K	303.15 K	308.15 K	318.15 K
101 kPa, x1 = 0.0944	–	13.8 mPa·s	–	–	–
101.3 kPa, x1 = 0.0009	1.025 mPa·s	0.911 mPa·s	0.8162 mPa·s	0.7364 mPa·s	0.6104 mPa·s
101.3 kPa, x1 = 0.0018	1.046 mPa·s	0.9296 mPa·s and 0.936 mPa·s	0.8329 mPa·s	0.7517 mPa·s and 0.759 mPa·s	0.629 mPa·s
101.3 kPa, x1 = 0.0045	–	0.988 mPa·s	–	0.798 mPa·s	0.662 mPa·s
101.3 kPa, x1 = 0.0089	–	1.075 mPa·s	–	0.867 mPa·s	0.72 mPa·s
101.3 kPa, x1 = 0.00893	1.219 mPa·s	1.085 mPa·s	0.9729 mPa·s	0.8788 mPa·s	0.7293 mPa·s
101.3 kPa, x1 = 0.0177	1.475 mPa·s	1.314 mPa·s	1.179 mPa·s	1.065 mPa·s	0.8849 mPa·s
101.3 kPa, x1 = 0.03478	2.199 mPa·s	1.95 mPa·s	1.747 mPa·s	1.574 mPa·s	1.302 mPa·s
101.3 kPa, x1 = 0.05127	3.332 mPa·s	2.937 mPa·s	2.616 mPa·s	2.346 mPa·s	1.926 mPa·s
101.3 kPa, x1 = 0.06722	5.271 mPa·s	4.603 mPa·s	4.064 mPa·s	3.615 mPa·s	2.926 mPa·s
101.3 kPa, x1 = 0.08263	9.001 mPa·s	7.752 mPa·s	6.761 mPa·s	5.951 mPa·s	4.726 mPa·s
